These results are taken from a melting point compilation (Tetko et al.; mined from patent text by program, amines drawn as free bases though some values may be those of a salt).

Structures are written as SMILES. Some results are limits rather than exact numbers.

One may read the melting point as the temperature, or range, at which the solid turns liquid.

For the molecule `C=CCOc1ccc(C(=O)C=Cc2c(OC)cccc2OC)cc1`, the melting point was in the range of 102 to 103 °C.

Turning to `O=C(O)c1ccccc1-c1nc(-c2cc(C(F)(F)F)cc(C(F)(F)F)c2)no1`, the melting point lay in the range of 178 to 182 °C. Under `CCOc1ccc(CO)c(Oc2ccc(Cl)cc2Cl)n1` stands 106 to 107 °C; under `CN(Cc1ccc(NC(=O)C2=Cc3cc(-c4ccc(C(F)(F)F)cc4)ccc3S(=O)(=O)CC2)cc1)C1CCOCC1`, 270 to 272 °C.

As to `CCc1cc(=O)cc(CC)[nH]1`, the melting point fell in the range of 103 to 110 °C.

The molecule `CCOC(=O)CC1SC(c2cc(C(C)(C)C)c(O)c(C(C)(C)C)c2)N(CCCBr)C1=O` (stereo not drawn) showed a melting point of 154 to 155 °C. `CON1CCC2(CC1)NC(=O)C(c1cc(C)ccc1C)=C2O` yielded a melting point of 176 to 177 °C. `O=C(NC(Cc1ccc(OCc2ccccc2)cc1)C(=O)O)c1cn2cc(-c3ccc(Cl)cc3)ccc2n1` (stereo not drawn) came in with a melting point of 270 to 271 °C. Under `CC(=O)Nc1ccc(Cl)cc1C(=O)c1ccccc1Cl` stands 108 to 110 °C; under `NC(=O)c1nc(-c2cccnc2Cl)nc2c1[nH]c(=O)n2-c1ccccc1`, 283 to 286 °C. Molecule `COC(=O)NCCOc1ccc(Oc2ccc(F)cc2)cc1` showed a melting point of 64 to 66 °C. Under `COc1ccc(C(=O)c2ccc(NC(C)=O)cc2)cc1` stands 160 to 162 °C. Under `COc1cccc(C(=O)N(CC=O)c2ccccc2OC)c1` stands 77 to 81 °C.

As to `O=C1c2ccccc2COc2ccc(CCCOC(=O)C(F)(F)F)cc21`, the melting point was 40.5 to 41 °C. As for `COc1cc(Nc2c(C#N)cnc3cc(Cl)c([N+](=O)[O-])cc23)cc(OC)c1OC`, the melting point was 215 to 217 °C. `O=C(Nc1ccc([N+](=O)[O-])cc1)C(F)F` registered a melting point of 188 to 189 °C. As to `O=C(O)c1cc(F)c(F)cc1Nc1ccc(F)cc1F`, the melting point was in the range of 215 to 216 °C. Under `CC1CC=NN1C(=O)c1cnccn1` (stereo not drawn) stands 77 to 79 °C; under `CN(C(=O)OC(C)(C)C)c1cc(Oc2ccc(-c3ccc(OCc4ccccc4)cc3)cc2)ccc1[N+](=O)[O-]`, 123 to 125 °C; under `CC(=O)N1CCN(C(=O)OC2C3=C(SCCS3)C(=O)N2c2ccc3ccc(Cl)nc3n2)CC1` (stereo not drawn), 271 °C. Consider `Cc1cc(OC2SCC(O)C(O)C2O)c(-c2ccnn2-c2ccccc2)cc1Cl` (stereo not drawn), for which the melting point was in the range of 95 to 99 °C.

For the molecule `COc1ccc(C2=NN(CC3CCCCC3)C(=O)[C@H]3CCCC[C@@H]23)cc1OC` (relative stereo), the melting point is 137 to 139 °C. Consider `COc1cc(OC)nc(NC(=O)NS(=O)(=O)c2c(C(F)F)nsc2OCC(F)(F)F)n1`, for which the melting point is 200 to 202 °C.

As to `O=S1(=O)c2cccc3cccc(c23)N1CCN1CCN(c2ccc(O)cc2)CC1`, the melting point is 235 °C. For `CCOc1nc(C)nc(N)n1`, the melting point fell in the range of 172 to 174 °C. The molecule `CCCCOc1c(CNC(=O)OC(C)(C)C)n(CC(C)C)c(=O)c2ccc(NC(C)=O)cc12` returned a melting point of 174 to 175 °C. As to `COC(=O)c1cccc([N+](=O)[O-])c1Cl`, the melting point fell in the range of 68 to 70 °C. Regarding `CN(C)Cc1c(-c2ccccc2)nc2c(C(=O)NC(C#N)c3cccc(F)c3)cccn12` (stereo not drawn), the melting point was 123 to 124 °C. For the molecule `Cc1noc(NS(=O)(=O)c2ccc(NC(=O)c3ccccc3)cc2-c2ccc(CC(C)C)cc2)c1C`, the melting point lay in the range of 207 to 211 °C. `C1=C2NCCCN2Cc2ccccc2C1c1ccccc1` (stereo not drawn) yielded a melting point of 227 to 228 °C. As for `CC(C)N1Cc2cccc(F)c2N(CCN2CC=C(c3c[nH]c4cc(F)ccc34)CC2)S1(=O)=O`, the melting point lay within 199 to 201 °C.

Regarding `CC(C)(C)OC(=O)c1ncn2c1C1CCCN1C(=O)c1cnccc1-2` (stereo not drawn), the melting point lay in the range of 217 to 218 °C.

For `CN1CCC(c2cc3cccc(O)c3o2)CC1`, the melting point was in the range of 144 to 146 °C. In turn, `CC1(C)CC(OC(=O)c2ccccc2)CC(C)(C)N1N=Nc1ccccc1` showed a melting point of 89 to 91 °C. Under `CN1CCC23c4c5ccc(O)c4OC2C(OC2OC(C(=O)O)C(O)C(O)C2O)C=CC3C1C5` (stereo not drawn) stands 240 to 243 °C. For `Cc1nn(-c2cc(O)c(Cl)cc2Cl)c(C)c1Cl`, the melting point lay within 172 to 174 °C. For the molecule `O=C1c2cc3nnn(CC4(c5cccc(F)c5)CC4)c(=O)c3cc2OC2CCCN12` (stereo not drawn), the melting point fell in the range of 162 to 163 °C. `CCCCN(CCCC)C(=S)C(=S)N(CCCC)CCCC` displayed a melting point of 35 to 38 °C. Take `Cc1ccc(C(NCC(=O)Nc2c(C(C)C)cccc2C(C)C)c2ccccc2)cc1` (stereo not drawn): the melting point is 165 to 166 °C. Molecule `CCn1cc(C(=O)O)c(=O)c2cc(F)c(N3CCSCC3)c(F)c21` yielded a melting point greater than 300 °C.

For `CCOc1cc2c(cc1OCC)C1(CCC(C(=O)O)(C(=O)O)CC1)N(C(=O)OCc1ccccc1)CC2`, the melting point was 175 to 176 °C. Under `O=C(O)c1cn(C2CC2)c2c(F)c(N3CCC4(C3)OCCCO4)c(F)cc2c1=O` stands 226 to 227 °C. Under `Cc1ccsc1C(=O)c1sc(Nc2ccc(S(N)(=O)=O)cc2)nc1N` stands 284 to 286 °C; under `Cc1cc(=O)n(C2CCCCC2)n1C`, 99 to 100 °C; under `CN(CCNC(=NCCSCc1csc(NC(=N)N)n1)NC#N)CCN(Cc1ccc(F)cc1)c1ccccn1`, 109 °C.

The molecule `O=C(Nc1ccccc1Oc1ccc(Cl)cc1Cl)C1CCN(S(=O)(=O)c2cc(Cl)ccc2Cl)CC1` came in with a melting point of 194 to 196 °C. Under `O=C(O)c1ccc2c(=O)c3ccccc3ccc2c1` stands 261 to 262 °C; under `CC1(C2CCCC2)Cc2cc(OCCCCCCC(=O)O)c(Cl)c(Cl)c2C1=O` (stereo not drawn), 107 to 110 °C. The molecule `CC(C)OC(=O)c1ncn2c1cnc1ccccc12` returned a melting point of 205 to 206 °C. `N#CCCCSc1cccc(NC(N)=NCC(F)(F)F)n1` displayed a melting point of 89 to 91 °C. `CONS(=O)(=O)c1ccccc1Cl` gave a melting point of 92.5 to 94 °C.

The molecule `COc1ccc(C2(C(=O)O)CCC(=O)CC2)cc1` showed a melting point of 154 to 156 °C. Under `Cc1nccc2[nH]c(=O)c(-c3noc(C4CC4)n3)cc12` stands 259 to 260 °C. Under `Cn1cncc1C(O)(c1ccc(C=NO)cc1)c1ccc2[nH]c(=O)cc(-c3cccc(Cl)c3)c2c1` (stereo not drawn) stands 230 °C; under `O=C(CCc1ccccc1)N[C@H](Cc1ccc(C(F)(F)F)cc1)[C@@H](O)c1cccc(F)c1` (racemic), 151 to 152 °C. Under `N#CC(C#N)=C1N(CCCN2CCC(F)(F)C2)CCN1CCCN1CCC(F)(F)C1` stands 122 to 124 °C; under `CC1(C)Cc2ccccc2C(c2cnc3ccccc3c2)N1` (stereo not drawn), 117 to 122 °C; under `O=C(c1ccc(Cl)cc1)N(c1ccccc1)c1ccc(O)cc1`, 224 to 225 °C. Regarding `CCCCNC(=O)Nc1ccc(C)cc1`, the melting point is 118 to 119 °C. Turning to `CCNC(=O)NCC1CC1c1cccn2nc(C)cc12` (stereo not drawn), the melting point lay in the range of 108 to 110 °C. With `Cc1cc(C(C#N)=CN(C)C)cc(C)n1`, the melting point is 149 °C.

As for `CN(C(=O)Nc1ccccc1)C1CCCCC1`, the melting point is 195 to 197 °C. `O=c1[nH]c(-c2ccc(O)cc2)cc2ccccc12` yielded a melting point of 239 to 241 °C. In turn, `Cn1ncnc1COc1nn2c(-c3ccccc3F)nncc2c1-c1ccccc1F` registered a melting point of 169 °C.

As to `CN(C=O)c1ccc(C2OC(C)(C)N=C2c2ccccc2)cc1` (stereo not drawn), the melting point was 104 to 105 °C. Under `O=C(c1cc(-c2cccc(Cl)c2)c(=O)n2c1-c1c(Cl)cccc1C2)N1CCC[C@@H]1CO` stands 228 to 230 °C; under `COc1ccc(C(=O)c2cc(Br)c(OC)cc2OC)c(F)c1`, 114 to 115 °C; under `O=C1c2cc3nn[nH]c(=O)c3cc2OC2CCCN12` (stereo not drawn), 253 °C. Turning to `COCC1(CC(=O)O)OCC(=O)c2c1[nH]c1ccccc21` (stereo not drawn), the melting point lay in the range of 135 to 140 °C.

Consider `COc1cc2c(c(Cl)c1Cl)S(=O)(=O)C(c1ccccc1F)=C2`, for which the melting point was in the range of 267 to 268 °C. As for `CCc1nc2cc(C(C)=O)ccc2n1-c1ccc(CCOC(=O)NS(=O)(=O)c2ccc(C)cc2)cc1`, the melting point lay within 188 to 190 °C. For `CC(C)(C)OC(=O)N1CC[C@@H]2Nc3cccc(Br)c3[C@@H]2CC1` (relative stereo), the melting point amounted to 124 °C. Under `CN1C(=O)CCC(C)(C)c2cc(Nc3ncc(Cl)c(N[C@H]4[C@@H](C(N)=O)[C@@H]5C=C[C@H]4C5)n3)ccc21` stands 233 °C. Molecule `COc1ccc(CN(C)CCCc2ccc(NC(=O)c3cccc4c(=O)c5cccc(F)c5[nH]c34)cc2)cc1OC` displayed a melting point of 158 °C.

As for `CN1C(=O)NC(=O)C1=Cc1cc(OCCCC(=O)N(C)C2CCCCC2)ccc1[N+](=O)[O-]`, the melting point lay in the range of 149 to 154 °C. Under `O=c1c(Cl)c(OCc2ccc(F)cc2F)ccn1Cc1ccc2c(c1)CCN2` stands 137 to 139 °C. Under `CCOC(=O)c1[nH]c2c(c1C)CC1CN(CC)CCC1(c1cccc(O)c1)C2` (stereo not drawn) stands 195 to 197 °C; under `Cc1ccc(NC2=C(C(=O)Nc3ccccc3)C(=O)OC2)cc1`, 181 to 183 °C; under `CC(=O)Nc1ccc(/C(=C/N2CCOCC2)C(=S)N2CCOCC2)cc1`, 145 to 147 °C. Under `CC(C)N1CCN(Cc2ccc(Cl)nc2)C1=N[N+](=O)[O-]` stands 138 to 142 °C; under `Cc1cnnc2c1C(=O)CC(c1ccsc1)C2` (stereo not drawn), 125 to 126 °C.

The molecule `FC(F)(F)c1cc(-c2nnn[nH]2)cc(C(F)(F)F)c1` had a melting point of 179 °C. Under `CC1(C)NC(=O)C2CN(CCCC(c3ccc(F)cc3)c3ccc(F)cc3)CCN21` (stereo not drawn) stands 148 °C. Under `C=C(Cn1ccnc1)c1ccccc1O` stands 139 to 141 °C; under `COc1nc(Cl)cnc1NS(=O)(=O)c1ccccc1-c1ccc(OC(C)C(=O)O)cc1` (stereo not drawn), 223 to 225 °C; under `O=C(c1ccncc1)c1cc(-c2ccccc2)c(N2CCOCC2)s1`, 149 °C.

For `Cc1ccc(Nc2nnc(Cc3ccncc3)c(C)c2C)cc1`, the melting point was in the range of 68 to 70 °C. Take `C#Cc1ccc(OC)c(C#N)c1`: the melting point lay within 100 to 101 °C.
